From the kinase profiling compilation of Christmann-Franck et al. (2016)

Tests used:
Assay in all cases: KINOMEscan competition binding
Conditions in all cases: compound 10.0 µM
[1] = system: PIK3CA (human), P42336 [M1043I]
CDK14 (human) = CDK14 (human) (UniProt O94921)
[2] = system: BMX (human), P51813 [V600E]
CSNK2A2 (human) = CSNK2A2 (human) (UniProt P19784)
ACVR1B (human) = ACVR1B (human) (UniProt P36896)
YES1 (human) = YES1 (human) (UniProt P07947)
MYO3A (human) = MYO3A (human) (UniProt Q8NEV4)
INSRR (human) = INSRR (human) (UniProt P14616)
PIK3CA (human) = PIK3CA (human) (UniProt P42336)
AKT3 (human) = AKT3 (human) (UniProt Q9Y243)
AKT3 (human), sequence (Q9Y243 whole entry, looked up): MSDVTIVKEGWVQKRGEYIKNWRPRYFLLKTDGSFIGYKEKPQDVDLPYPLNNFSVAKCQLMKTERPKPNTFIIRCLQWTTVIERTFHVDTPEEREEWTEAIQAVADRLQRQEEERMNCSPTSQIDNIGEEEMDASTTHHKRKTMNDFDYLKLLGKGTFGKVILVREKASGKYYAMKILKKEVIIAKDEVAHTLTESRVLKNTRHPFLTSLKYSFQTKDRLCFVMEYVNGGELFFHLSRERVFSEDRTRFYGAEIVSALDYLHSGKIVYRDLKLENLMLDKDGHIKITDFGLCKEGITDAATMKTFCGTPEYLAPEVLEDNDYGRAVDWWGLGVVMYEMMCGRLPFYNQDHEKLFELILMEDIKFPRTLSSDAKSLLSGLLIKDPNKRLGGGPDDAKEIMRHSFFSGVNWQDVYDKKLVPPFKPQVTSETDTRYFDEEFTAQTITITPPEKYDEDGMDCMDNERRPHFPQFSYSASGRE

LRRK2 (human) = LRRK2 (human) (UniProt Q5S007)
MAPK14 (human) = MAPK14 (human) (UniProt Q16539)
[3] = molecular target: JAK3 JH1 catalytic (human) (UniProt P52333)
MYLK (human) = MYLK (human) (UniProt Q15746)
NEK2 (human) = NEK2 (human) (UniProt P51955)
NEK2 (human), sequence (P51955 whole entry, looked up): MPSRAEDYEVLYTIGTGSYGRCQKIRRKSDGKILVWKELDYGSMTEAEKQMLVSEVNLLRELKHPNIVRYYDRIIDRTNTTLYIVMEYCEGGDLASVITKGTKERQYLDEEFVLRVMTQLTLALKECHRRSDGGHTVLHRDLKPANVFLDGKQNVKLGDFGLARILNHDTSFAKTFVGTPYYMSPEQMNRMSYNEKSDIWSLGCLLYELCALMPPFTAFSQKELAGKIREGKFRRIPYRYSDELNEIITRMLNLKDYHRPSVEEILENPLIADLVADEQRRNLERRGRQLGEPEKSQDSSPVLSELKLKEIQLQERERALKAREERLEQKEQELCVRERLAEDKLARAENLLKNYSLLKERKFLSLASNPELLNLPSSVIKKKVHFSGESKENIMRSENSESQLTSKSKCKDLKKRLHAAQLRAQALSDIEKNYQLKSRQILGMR

PIK3CG (human) = PIK3CG (human) (UniProt P48736)
TYRO3 (human) = TYRO3 (human) (UniProt Q06418)
CDK4 CCND1 (human) = CDK4 CCND1 (human) (UniProt P11802+P24385)
CSNK1D (human) = CSNK1D (human) (UniProt P48730)
MAPKAPK2 (human) = MAPKAPK2 (human) (UniProt P49137)
AXL (human) = AXL (human) (UniProt P30530)
DAPK3 (human) = DAPK3 (human) (UniProt O43293)
ICK (human) = ICK (human) (UniProt Q9UPZ9)
ICK (human), sequence (Q9UPZ9 whole entry, looked up): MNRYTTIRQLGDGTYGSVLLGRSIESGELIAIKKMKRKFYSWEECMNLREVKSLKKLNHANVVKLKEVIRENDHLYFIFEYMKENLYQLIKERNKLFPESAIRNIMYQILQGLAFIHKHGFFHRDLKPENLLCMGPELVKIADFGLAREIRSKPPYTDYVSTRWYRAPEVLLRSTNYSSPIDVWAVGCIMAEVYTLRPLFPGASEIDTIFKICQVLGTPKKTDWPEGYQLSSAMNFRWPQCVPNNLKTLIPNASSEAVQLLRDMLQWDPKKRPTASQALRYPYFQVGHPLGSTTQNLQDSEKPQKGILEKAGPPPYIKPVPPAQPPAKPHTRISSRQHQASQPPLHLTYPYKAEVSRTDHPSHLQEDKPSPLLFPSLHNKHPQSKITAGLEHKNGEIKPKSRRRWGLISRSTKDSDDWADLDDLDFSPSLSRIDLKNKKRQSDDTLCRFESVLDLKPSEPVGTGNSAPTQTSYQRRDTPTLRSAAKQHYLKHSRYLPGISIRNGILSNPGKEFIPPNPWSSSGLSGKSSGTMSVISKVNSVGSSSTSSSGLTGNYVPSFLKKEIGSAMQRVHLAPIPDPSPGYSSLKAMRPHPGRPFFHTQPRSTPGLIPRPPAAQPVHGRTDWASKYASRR

MYLK4 (human) = MYLK4 (human) (UniProt Q86YV6)
[4] = system: EGFR (human), P00533 [A750P; 747-749 del]
ACVR1 (human) = ACVR1 (human) (UniProt Q04771)
ACVR1 (human), sequence (Q04771 whole entry, looked up): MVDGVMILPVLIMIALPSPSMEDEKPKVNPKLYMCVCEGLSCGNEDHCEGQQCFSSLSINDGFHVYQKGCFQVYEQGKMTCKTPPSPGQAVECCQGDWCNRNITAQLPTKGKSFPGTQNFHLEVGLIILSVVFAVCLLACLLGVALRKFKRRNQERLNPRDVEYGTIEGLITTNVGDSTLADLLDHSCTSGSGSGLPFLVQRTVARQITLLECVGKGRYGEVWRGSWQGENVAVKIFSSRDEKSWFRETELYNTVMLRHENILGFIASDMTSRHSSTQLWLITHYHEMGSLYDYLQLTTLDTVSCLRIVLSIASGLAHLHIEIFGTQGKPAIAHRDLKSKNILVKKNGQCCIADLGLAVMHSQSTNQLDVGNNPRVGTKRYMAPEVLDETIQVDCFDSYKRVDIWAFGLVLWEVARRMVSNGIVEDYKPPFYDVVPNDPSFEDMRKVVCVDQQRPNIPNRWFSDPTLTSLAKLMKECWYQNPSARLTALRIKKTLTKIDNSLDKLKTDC

PRKAA1 (human) = PRKAA1 (human) (UniProt Q13131)
PAK2 (human) = PAK2 (human) (UniProt Q13177)
IRAK3 (human) = IRAK3 (human) (UniProt Q9Y616)
LCK (human) = LCK (human) (UniProt P06239)
SIK2 (human) = SIK2 (human) (UniProt Q9H0K1)
AURKA (human) = AURKA (human) (UniProt O14965)
AURKA (human), sequence (O14965 whole entry, looked up): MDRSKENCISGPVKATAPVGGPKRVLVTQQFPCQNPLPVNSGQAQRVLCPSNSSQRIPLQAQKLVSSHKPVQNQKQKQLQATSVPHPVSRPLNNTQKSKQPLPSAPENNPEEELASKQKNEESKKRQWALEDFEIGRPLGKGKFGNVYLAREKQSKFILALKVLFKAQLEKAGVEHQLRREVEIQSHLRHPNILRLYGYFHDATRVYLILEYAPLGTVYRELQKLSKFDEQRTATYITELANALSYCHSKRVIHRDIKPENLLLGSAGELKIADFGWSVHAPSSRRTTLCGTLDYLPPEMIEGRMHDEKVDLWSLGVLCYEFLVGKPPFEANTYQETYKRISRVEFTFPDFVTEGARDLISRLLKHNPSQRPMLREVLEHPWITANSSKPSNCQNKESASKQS

CDKL2 (human) = CDKL2 (human) (UniProt Q92772)
BRSK1 (human) = BRSK1 (human) (UniProt Q8TDC3)
MARK1 (human) = MARK1 (human) (UniProt Q9P0L2)
TEK (human) = TEK (human) (UniProt Q02763)
CDK2 (human) = CDK2 (human) (UniProt P24941)
WEE2 (human) = WEE2 (human) (UniProt P0C1S8)
WEE2 (human), sequence (P0C1S8 whole entry, looked up): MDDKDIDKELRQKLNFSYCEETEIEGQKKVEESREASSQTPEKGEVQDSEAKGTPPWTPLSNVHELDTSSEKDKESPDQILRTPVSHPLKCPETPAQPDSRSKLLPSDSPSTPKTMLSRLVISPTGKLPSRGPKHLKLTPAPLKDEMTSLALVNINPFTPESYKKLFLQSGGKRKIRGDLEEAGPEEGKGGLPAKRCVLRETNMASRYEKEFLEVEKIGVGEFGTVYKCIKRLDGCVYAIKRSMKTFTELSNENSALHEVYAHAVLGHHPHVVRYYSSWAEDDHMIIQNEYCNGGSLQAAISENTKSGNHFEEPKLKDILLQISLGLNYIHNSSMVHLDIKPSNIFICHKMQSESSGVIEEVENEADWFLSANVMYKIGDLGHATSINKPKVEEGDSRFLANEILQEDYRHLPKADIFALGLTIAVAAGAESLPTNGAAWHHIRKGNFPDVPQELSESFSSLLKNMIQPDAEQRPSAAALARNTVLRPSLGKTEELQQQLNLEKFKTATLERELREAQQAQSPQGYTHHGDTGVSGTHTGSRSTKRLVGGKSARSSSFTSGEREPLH

RPS6KA4 KD1 (human) = RPS6KA4 KD1 (human) (UniProt O75676)
MLTK (human) = MLTK (human) (UniProt Q9NYL2)

BMX (human), P51813 [V600E], sequence (P51813 whole entry, looked up, stated change not applied): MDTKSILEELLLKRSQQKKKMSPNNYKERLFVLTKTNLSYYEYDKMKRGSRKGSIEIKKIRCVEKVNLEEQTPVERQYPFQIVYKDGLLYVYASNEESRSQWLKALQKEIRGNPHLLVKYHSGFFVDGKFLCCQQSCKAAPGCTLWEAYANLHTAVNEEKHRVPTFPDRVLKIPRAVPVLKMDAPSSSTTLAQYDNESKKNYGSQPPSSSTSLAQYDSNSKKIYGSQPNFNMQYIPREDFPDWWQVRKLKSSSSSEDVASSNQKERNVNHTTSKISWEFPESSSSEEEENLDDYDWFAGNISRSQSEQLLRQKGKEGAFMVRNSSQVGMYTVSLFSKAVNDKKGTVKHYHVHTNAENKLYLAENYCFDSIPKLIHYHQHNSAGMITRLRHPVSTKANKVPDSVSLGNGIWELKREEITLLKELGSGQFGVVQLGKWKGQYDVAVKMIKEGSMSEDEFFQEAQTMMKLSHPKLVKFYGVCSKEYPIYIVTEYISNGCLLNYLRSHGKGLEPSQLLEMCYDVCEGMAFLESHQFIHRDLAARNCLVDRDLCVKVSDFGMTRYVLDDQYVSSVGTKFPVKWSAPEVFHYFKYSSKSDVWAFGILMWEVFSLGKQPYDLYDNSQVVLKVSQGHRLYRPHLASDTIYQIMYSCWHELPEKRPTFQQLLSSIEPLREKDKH
YES1 (human), sequence (P07947 whole entry, looked up): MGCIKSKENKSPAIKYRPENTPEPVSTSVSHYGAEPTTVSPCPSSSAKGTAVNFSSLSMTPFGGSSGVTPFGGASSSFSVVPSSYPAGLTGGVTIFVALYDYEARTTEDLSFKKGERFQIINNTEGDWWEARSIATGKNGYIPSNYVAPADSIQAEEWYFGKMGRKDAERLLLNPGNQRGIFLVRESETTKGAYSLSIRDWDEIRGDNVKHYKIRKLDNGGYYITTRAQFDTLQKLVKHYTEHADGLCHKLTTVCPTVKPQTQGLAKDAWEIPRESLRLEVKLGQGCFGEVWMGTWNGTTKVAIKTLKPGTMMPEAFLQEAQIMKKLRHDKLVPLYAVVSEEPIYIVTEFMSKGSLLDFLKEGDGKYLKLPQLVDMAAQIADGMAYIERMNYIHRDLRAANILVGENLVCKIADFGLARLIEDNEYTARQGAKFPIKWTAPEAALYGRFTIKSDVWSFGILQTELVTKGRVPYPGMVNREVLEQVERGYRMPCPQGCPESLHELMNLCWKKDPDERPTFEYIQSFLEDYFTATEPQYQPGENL
CDK14 (human), sequence (O94921 whole entry, looked up): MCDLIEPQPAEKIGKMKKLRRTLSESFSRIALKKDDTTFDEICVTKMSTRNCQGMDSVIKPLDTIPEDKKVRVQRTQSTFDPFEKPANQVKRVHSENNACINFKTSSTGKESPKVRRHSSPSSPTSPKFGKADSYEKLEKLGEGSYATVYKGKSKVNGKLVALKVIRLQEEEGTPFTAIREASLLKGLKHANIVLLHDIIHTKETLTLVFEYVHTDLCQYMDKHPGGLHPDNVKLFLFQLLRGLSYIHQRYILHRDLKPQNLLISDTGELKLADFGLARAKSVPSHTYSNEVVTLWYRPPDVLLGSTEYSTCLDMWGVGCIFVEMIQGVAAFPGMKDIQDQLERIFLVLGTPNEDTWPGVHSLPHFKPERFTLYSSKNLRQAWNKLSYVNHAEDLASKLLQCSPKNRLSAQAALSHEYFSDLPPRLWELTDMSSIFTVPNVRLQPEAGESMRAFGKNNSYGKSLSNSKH

For N#Cc1cc(-c2ccnc(Nc3ccc(-n4cnc(-c5cccnc5)n4)cc3)n2)cc(N2CCOCC2)c1, the kinase still bound, per cent of control [1] was 100%, the kinase still bound, per cent of control (CDK14 (human)) was 35% and the kinase still bound, per cent of control [2] was 72%. For the same compound, the kinase still bound, per cent of control (CSNK2A2 (human)) was 11%, the kinase still bound, per cent of control (ACVR1B (human)) was 76% and the kinase still bound, per cent of control (YES1 (human)) was 79%. It also gave a kinase still bound, per cent of control (MYO3A (human)) of 69%, a kinase still bound, per cent of control (INSRR (human)) of 68% and a kinase still bound, per cent of control (PIK3CA (human)) of 100%. It also gave a kinase still bound, per cent of control (AKT3 (human)) of 100%, a kinase still bound, per cent of control (LRRK2 (human)) of 94% and a kinase still bound, per cent of control (MAPK14 (human)) of 100%. It also gave a kinase still bound, per cent of control [3] of 2.2%, a kinase still bound, per cent of control (MYLK (human)) of 100% and a kinase still bound, per cent of control (NEK2 (human)) of 94%. The kinase still bound, per cent of control (PIK3CG (human)) was 0.75%, the kinase still bound, per cent of control (TYRO3 (human)) was 87% and the kinase still bound, per cent of control (CDK4 CCND1 (human)) was 100%. For the same compound, the kinase still bound, per cent of control (CSNK1D (human)) was 86%, the kinase still bound, per cent of control (MAPKAPK2 (human)) was 100% and the kinase still bound, per cent of control (AXL (human)) was 28%. The kinase still bound, per cent of control (DAPK3 (human)) was 73%, the kinase still bound, per cent of control (ICK (human)) was 2.6% and the kinase still bound, per cent of control (MYLK4 (human)) was 26%. It also gave a kinase still bound, per cent of control [4] of 62%, a kinase still bound, per cent of control (ACVR1 (human)) of 23% and a kinase still bound, per cent of control (PRKAA1 (human)) of 84%. The kinase still bound, per cent of control (PAK2 (human)) was 72%, the kinase still bound, per cent of control (IRAK3 (human)) was 12% and the kinase still bound, per cent of control (LCK (human)) was 48%. The kinase still bound, per cent of control (SIK2 (human)) was 33%, the kinase still bound, per cent of control (AURKA (human)) was 93% and the kinase still bound, per cent of control (CDKL2 (human)) was 2%. The kinase still bound, per cent of control (BRSK1 (human)) was 85%, the kinase still bound, per cent of control (MARK1 (human)) was 84% and the kinase still bound, per cent of control (TEK (human)) was 67%. It also gave a kinase still bound, per cent of control (CDK2 (human)) of 30%, a kinase still bound, per cent of control (WEE2 (human)) of 100% and a kinase still bound, per cent of control (RPS6KA4 KD1 (human)) of 100%. The kinase still bound, per cent of control (MLTK (human)) was 17%.
CNC(=O)Nc1ccc(-c2nc(N3CC4CCC(C3)O4)c3cnn(C4CCC5(CC4)OCCO5)c3n2)cc1 was tested, and the kinase still bound, per cent of control [1] was 4.4%, the kinase still bound, per cent of control (CDK14 (human)) was 94% and the kinase still bound, per cent of control [2] was 100%. The kinase still bound, per cent of control (CSNK2A2 (human)) was 100%, the kinase still bound, per cent of control (ACVR1B (human)) was 100% and the kinase still bound, per cent of control (YES1 (human)) was 97%. The kinase still bound, per cent of control (MYO3A (human)) was 52%, the kinase still bound, per cent of control (INSRR (human)) was 100% and the kinase still bound, per cent of control (PIK3CA (human)) was 16%. The kinase still bound, per cent of control (AKT3 (human)) was 86%, the kinase still bound, per cent of control (LRRK2 (human)) was 82% and the kinase still bound, per cent of control (MAPK14 (human)) was 100%. The kinase still bound, per cent of control [3] was 90%, the kinase still bound, per cent of control (MYLK (human)) was 100% and the kinase still bound, per cent of control (NEK2 (human)) was 72%. The kinase still bound, per cent of control (PIK3CG (human)) was 72%, the kinase still bound, per cent of control (TYRO3 (human)) was 100% and the kinase still bound, per cent of control (CDK4 CCND1 (human)) was 90%. The kinase still bound, per cent of control (CSNK1D (human)) was 92%, the kinase still bound, per cent of control (MAPKAPK2 (human)) was 82% and the kinase still bound, per cent of control (AXL (human)) was 88%. The kinase still bound, per cent of control (DAPK3 (human)) was 100%, the kinase still bound, per cent of control (ICK (human)) was 87% and the kinase still bound, per cent of control (MYLK4 (human)) was 100%. It also gave a kinase still bound, per cent of control [4] of 52%, a kinase still bound, per cent of control (ACVR1 (human)) of 90% and a kinase still bound, per cent of control (PRKAA1 (human)) of 94%. The kinase still bound, per cent of control (PAK2 (human)) was 99%, the kinase still bound, per cent of control (IRAK3 (human)) was 100% and the kinase still bound, per cent of control (LCK (human)) was 100%. It also gave a kinase still bound, per cent of control (SIK2 (human)) of 97%, a kinase still bound, per cent of control (AURKA (human)) of 100% and a kinase still bound, per cent of control (CDKL2 (human)) of 100%. The kinase still bound, per cent of control (BRSK1 (human)) was 100%, the kinase still bound, per cent of control (MARK1 (human)) was 100% and the kinase still bound, per cent of control (TEK (human)) was 100%. For the same compound, the kinase still bound, per cent of control (CDK2 (human)) was 92%, the kinase still bound, per cent of control (WEE2 (human)) was 100% and the kinase still bound, per cent of control (RPS6KA4 KD1 (human)) was 90%. It also gave a kinase still bound, per cent of control (MLTK (human)) of 77%.
For CCCS(=O)(=O)Nc1ccc(F)c(C(=O)c2c[nH]c3ncc(Cl)cc23)c1F, the kinase still bound, per cent of control [1] was 76%, the kinase still bound, per cent of control (CDK14 (human)) was 100% and the kinase still bound, per cent of control [2] was 0%. For the same compound, the kinase still bound, per cent of control (CSNK2A2 (human)) was 12%, the kinase still bound, per cent of control (ACVR1B (human)) was 98% and the kinase still bound, per cent of control (YES1 (human)) was 18%. It also gave a kinase still bound, per cent of control (MYO3A (human)) of 35%, a kinase still bound, per cent of control (INSRR (human)) of 89% and a kinase still bound, per cent of control (PIK3CA (human)) of 82%. The kinase still bound, per cent of control (AKT3 (human)) was 100%, the kinase still bound, per cent of control (LRRK2 (human)) was 37% and the kinase still bound, per cent of control (MAPK14 (human)) was 60%. It also gave a kinase still bound, per cent of control [3] of 24%, a kinase still bound, per cent of control (MYLK (human)) of 79% and a kinase still bound, per cent of control (NEK2 (human)) of 49%. The kinase still bound, per cent of control (PIK3CG (human)) was 83%, the kinase still bound, per cent of control (TYRO3 (human)) was 100% and the kinase still bound, per cent of control (CDK4 CCND1 (human)) was 64%. The kinase still bound, per cent of control (CSNK1D (human)) was 91%, the kinase still bound, per cent of control (MAPKAPK2 (human)) was 100% and the kinase still bound, per cent of control (AXL (human)) was 40%. It also gave a kinase still bound, per cent of control (DAPK3 (human)) of 85%, a kinase still bound, per cent of control (ICK (human)) of 63% and a kinase still bound, per cent of control (MYLK4 (human)) of 15%. It also gave a kinase still bound, per cent of control [4] of 77%, a kinase still bound, per cent of control (ACVR1 (human)) of 100% and a kinase still bound, per cent of control (PRKAA1 (human)) of 64%. The kinase still bound, per cent of control (PAK2 (human)) was 37%, the kinase still bound, per cent of control (IRAK3 (human)) was 26% and the kinase still bound, per cent of control (LCK (human)) was 3.2%. For the same compound, the kinase still bound, per cent of control (SIK2 (human)) was 84%, the kinase still bound, per cent of control (AURKA (human)) was 60% and the kinase still bound, per cent of control (CDKL2 (human)) was 49%. The kinase still bound, per cent of control (BRSK1 (human)) was 55%, the kinase still bound, per cent of control (MARK1 (human)) was 74% and the kinase still bound, per cent of control (TEK (human)) was 100%. For the same compound, the kinase still bound, per cent of control (CDK2 (human)) was 78%, the kinase still bound, per cent of control (WEE2 (human)) was 100% and the kinase still bound, per cent of control (RPS6KA4 KD1 (human)) was 85%. It also gave a kinase still bound, per cent of control (MLTK (human)) of 6%.
